As usually defined, the CC50 is the concentration that lowers cell viability or growth by half. As usually defined, the IC50 is the concentration at which inhibition is half-maximal.

Some results are limits rather than exact numbers.

Data on 5 compounds can be found in patent publication US20240002326A1, “COMPOUNDS AND USE THEREOF IN METHODS OF TREATMENT” (The University of Queensland, priority 2016, published 2024).

The nature of data set [1]: Cytotoxicity assay (Alamar blue), HepG2. The data set is classed as cell-based. To be noted: human, HepG2 cells; HepG2, 24 h. (In general: The colour change of resazurin is a common sign of viable cells or microbes.)
Data set [2] can be described thus: Cytotoxicity assay (Alamar blue), HEK293. The data set is classed as cell-based. To be noted: human, HEK293 cells; HEK293, 24 h. The method, boiled down: (§1)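 COS-7 cells in DMEM with 10% FBS; HepG2 and HEK293 in DMEM with 1% FBS. After 24 h plating, serial compound dilutions (0.5% DMSO final) added for 24 h at 37° C. Viability from Alamar blue 5 μM, fluorescence 560/590 nm read after 2 h.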

Data set [3] deals with COS-7 cells. As to the kind of experiment: Cytotoxicity assay (Alamar blue), COS-7. To be noted: COS7, 24 h; read-out: In vitro cytotoxicity CC50 ± SD COS7. Format: cell-based, Monkey. The protocol:
(§2) Cell toxicity was determined using Alamar blue, as previously described (McMillian et al., 2002). COS-7 cells were seeded as 7000 cells per well in black wall clear bottom 96-well plates in DMEM medium (Life Technologies Australia) with 10% FBS. HepG2 and HEK293 cell lines, from ATCC, were seeded as 5000 cells per well in black wall clear bottom 384-well cell culture plates in DMEM with 1% FBS. Cells were cultured for 24 h at 37° C., 5% CO2. A serial dilution of compounds was added, with a final DMSO concentration adjusted to 0.5% v/v. Cells were incubated for another 24 h. 1 Triton X-100 was used as negative control, and 0.5% DMSO as positive control. 5 μM Alamar blue was added to each well and fluorescence was measured (λexc=560 nm, λem=590 nm) after 2 h incubation at 37° C. Data were analysed using Prism software.

Data set [4] addresses mouse SOX18-HMG (109aa) (Mus musculus (Mouse), UniProt P43680). Nature of the data set: Direct protein binding assay (thermal aggregation, static light scattering). To be noted: 500 μM for Sm4 and Sm14, 1.5 mM for Sm5.
Data set [5] deals with full-length mouse SOX18 (Mus musculus (Mouse), UniProt P43680). As to the kind of experiment: FP DNA-binding competition assay, full-length SOX18. As to conditions: full-length mouse SOX18, Prox1-DNA probe, read-out: FP IC50 ± SD. How it is done: Full-length mouse SOX18. A N-terminally tagged mouse HIS-GST-SOX18 was recombinantly expressed in Sf9 cells, purified on GST resin (GE Healthcare Life Sciences, Sweden) and eluted in Tris buffer (50 mM Tris, 500 mM NaCl, 10 mM reduced glutathione, pH 8.0). cDNA clone of mouse Sox18 was PCR amplified and cloned into the pOPIN-GST vector, to generate N-terminally tagged HIS-GST-SOX18. A sequence verified construct was co-transfected with flashBACULTRA (Oxford Expression Technologies, Oxford, United Kingdom) baculovirus DNA onto Spodoptera frugiperda Sf9 cells to obtain recombinantly expressed HIS-GST-SOX18. High Five cells (BTI-TN-5B1-4) in Sf-900™ II serum-free medium were infected at cell density of 1.5×10^6 cells/mL with a multiplicity of infection (MOI) of 5 PFU/cell, and incubated at 21° C. for 144 h before harvest. The cell pellet from 100 mL of expression culture was resuspended in 30 mL of phosphate lysis buffer (50 mM sodium phosphate, 500 mM sodium chloride, 1% Triton X-100, 2 mM magnesium chloride, one tablet of cOmplete Protease Inhibitor Cocktail, pH 7.5) and sonicated on ice for 20 s. The cell lysate was centrifuged at 17,000×g for 40 min at 4° C. Supernatant was incubated with Benzonase Nuclease (Merck Millipore) for 1 h at room temperature for DNA degradation, before being mixed with 500 μL GST resin (GE Healthcare Life Sciences, Sweden) and incubated on a rotating wheel at room temperature for 1 h. The sample was centrifuged at 500×g for 1 min to remove unbound protein in the supernatant. The resin was further washed with 50 resin volumes (RV) wash buffer (50 mM sodium phosphate, 500 mM NaCl, pH 7.5), with unbound protein removed by centrifugation as above. Bound protein was eluted from the resin with 3×1 RV elution buffer (50 mM Tris, 500 mM NaCl, 10 mM reduced glutathione, pH 8.0), collecting the supernatant by centrifugation as above.
full-length mouse SOX18, sequence (P43680 whole entry): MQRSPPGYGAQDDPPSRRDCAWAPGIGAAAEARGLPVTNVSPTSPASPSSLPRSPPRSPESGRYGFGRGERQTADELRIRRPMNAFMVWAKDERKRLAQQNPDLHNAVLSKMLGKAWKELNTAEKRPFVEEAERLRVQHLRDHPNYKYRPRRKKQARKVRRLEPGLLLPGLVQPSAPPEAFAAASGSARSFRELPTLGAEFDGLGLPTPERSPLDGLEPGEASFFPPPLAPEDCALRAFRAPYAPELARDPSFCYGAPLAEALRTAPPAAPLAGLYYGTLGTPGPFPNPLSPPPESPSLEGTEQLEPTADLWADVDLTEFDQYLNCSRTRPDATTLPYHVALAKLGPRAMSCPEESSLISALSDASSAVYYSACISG
The DNA-binding competition assay was performed in black 384-well plates, with mouse full length SOX18, or SOX-HMG fragments. All experiments were performed using a fluorescently-labelled Prox1-DNA element. Controls consisted of free labelled DNA (low FP milli-Polarization index, mP), labelled DNA in presence of protein (negative control, high mP), and labelled DNA and protein in presence of competing excess of unlabelled DNA (positive control, low mP)
The DNA-binding competition assay was performed in 25 uL, in black 384-well plates, using either 30 mM HEPES (N-2-Hydroxyethylpiperazine-N′-2-Ethanesulfonic Acid) (pH 7.5, with 100 mM KCl, 40 mM NaCl, 10 mM NH4OAc, […], 2 mM MgCl2, 0.5 mM EDTA, 0.01% NP-40) for mouse full length SOX18, or Tris-NaCl (10 mM Tris pH 8.0 and 100 mM NaCl) for SOX-HMG fragments. All experiments were performed using a 40 bp double-stranded Prox1-DNA element with 5′ fluorescein amidite (FAM) label (Sigma Proligo or InVitrogen). Optimum binding levels were obtained at 200 nM of mouse full length SOX18 and 60 nM of SOX-HMG fragment, in presence of 5 nM labelled DNA. Controls consisted of free labelled DNA (low FP milli-Polarization index, mP), labelled DNA in presence of protein (negative control, high mP), and labelled DNA and protein in presence of 400 time competing excess of unlabelled DNA (positive control, low mP). Depending on compound, final DMSO concentrations ranged from 2 to 3.33% v/v. After mixing protein, DNA probe and compound, plates were sealed and briskly agitated in the dark for 5 minutes at room temperature, 10 minutes at 37° C., and 30 minutes at room temperature, before reading fluorescence polarization on a Tecan M1000Pro (λexc=485 nm, λem=525 nm). All experiments were performed in triplicates.

Data set [6] deals with SOX18 (Mus musculus (Mouse), UniProt P43680). Nature of the data set: Cell-based luciferase SOX18-dependent transactivation (Vcam1 promoter) in COS-7. As to conditions: COS7, 24 h. How it is done:
Monkey kidney fibroblast-like cells (COS-7) were cultured at 37° C., 5% CO2 in DMEM (Life technologies, 11995) with FBS, sodium pyruvate, L-glutamine, penicillin, streptomycin, non-essential amino acids and HEPES. Cells were grown in 96-well plates to 80% confluency, and transfected with mouse plasmids pGL2 Vcam 1 promoter construct (VC1889) and pSG5 Sox18, using X-tremeGENE 9 DNA transfection reagent (Roche, 06365787001) (Hosking et al., 2004, Duong et al., 2014). After 4-6 h transfection, cells were incubated with compounds in 0.5% FBS medium for another 24 h, before lysis and luciferase assay (Perkin Elmer, 6016711).

A short description of data set [7]: Cytotoxicity assay (Alamar blue), COS-7. Format: cell-based, Monkey. To be noted: chlorocebus aethiops, COS-7 cells; COS7, 24 h; read-out: In vitro cytotoxicity CC50 ± SD COS7. The protocol: as §2
In data set [8] the test system is HEK293. As to the kind of experiment: Cytotoxicity assay (Alamar blue), HEK293. The data set is classed as cell-based. As to conditions: HEK293, 24 h. A digest of the protocol: as §1

SOX18, sequence (P43680 whole entry): as above
mouse SOX18-HMG (109aa), sequence (P43680 69-177): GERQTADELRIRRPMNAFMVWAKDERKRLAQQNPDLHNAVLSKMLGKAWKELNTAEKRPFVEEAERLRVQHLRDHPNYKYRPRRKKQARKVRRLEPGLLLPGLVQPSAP

With `Oc1cc(CCc2ccccc2)cc(O)c1O` [Sm40, 5-phenethylbenzene-1,2,3-triol], the CC50 at 24 h in data set [1] and in data set [2] was greater than 100 µM in each case.
As to `COc1cc(C)cc(/C=C/c2ccc3ccccc3c2)c1C(=O)O` [Sm34, (E)-2-methoxy-4-methyl-6-(2-(naphthalen-2-yl)vinyl)benzoic acid], the CC50 at 24 h in data set [1] and in data set [2] was greater than 100 µM each time.
As to `O=C(O)c1c(O)cccc1COCCc1ccccc1` [Sm5], the CC50 in data set [3] is greater than 200 µM. Moreover, the “increase in Tagg” value in data set [4] is “more than 3 °C”. In addition, the IC50 worked out at 1100 µM in data set [5] and 21 ± 14 µM in data set [6] (read-out: In vitro efficacy in cell IC50 ± SD COS7 (Luc)).
Take `O=C(O)c1ccccc1Nc1cccc(C(F)(F)F)c1` [Flufenamic acid, reference compound]: in data set [7], the CC50 at 24 h stood at 65 ± 2.7 µM. Also, the IC50 in data set [5] worked out at 220 ± 68.6 µM. In data set [6], the “In vitro efficacy in cell IC50 ± SD COS7 (Luc)” value was “cytotoxicity was reached before any concentration-dependent SOX18 inhibition could be observed”.
With `CCN(CC)C(=O)c1c(O)cc(O)cc1CCc1ccc2ccccc2c1` [Sm26, N,N,diethyl-2,4-hydroxy-6-(2-(naphthalen-2-yl)ethyl)benzamide], the CC50 in data set [8] was 23.5 µM.
